Each block holds one molecule with its values, some of them ahead of it.
What was measured:
Test in all cases: pNP release at […] nm, Lineweaver-Burk
Conditions in all cases: 50 mM Tris-HCl pH 7.5, 40 °C, 15 min
[1] = system: T1, protein 6 (gene 6 product, fosmid NT18-17); assay type: biochemical
T1 construct: full-length, pET28b(+) His-tags at N and C termini, E. coli Origami2(DE3) pLysS, ~22 kDa, gene amplicon 673 bp; alpha-glucosidase assignment unusual, host contaminant possible

[2] = system: T2, protein 5 (gene 5 product, fosmid 10BT); assay type: biochemical
T2 construct: full-length, pET28b(+) His-tags at N and C termini, E. coli Origami2(DE3) pLysS, ~45 kDa, gene amplicon 1262 bp; alpha-glucosidase assignment unusual, host contaminant possible

[3] = system: T3, protein 2 (gene 2 product, fosmid T5-5); assay type: biochemical, uncultured bacterium
T3 construct: full-length, pET28b(+) His-tags at N and C termini, E. coli Origami2(DE3) pLysS, ~85 kDa, gene amplicon 2410 bp

[4] = system: T4, protein 1 (gene 1 product, fosmid NT2-2); assay type: biochemical, uncultured bacterium
T4 construct: full-length, pET28b(+) His-tags at N and C termini, E. coli Origami2(DE3) pLysS, ~116 kDa, gene amplicon 3146 bp

- Km [1]: 21.4 mM
- Km [2]: 7.4 mM
Compound: O=[N+]([O-])c1ccc(O[C@H]2O[C@H](CO)[C@@H](O)[C@H](O)[C@H]2O)cc1 [pNP-α-D-glucopyranoside]

- Km [3]: 300 µM
Compound: O=[N+]([O-])c1ccc(O[C@@H]2OC[C@H](O)[C@H](O)[C@H]2O)cc1 [pNP-α-L-arabinopyranoside]

- Km [4]: 100 µM
Compound: O=[N+]([O-])c1ccc(O[C@@H]2O[C@H](CO)[C@H](O)[C@H](O)[C@H]2O)cc1 [pNP-β-D-galactopyranoside]

- Km [3]: 1000 µM
Compound: O=[N+]([O-])c1ccc(O[C@@H]2OC[C@@H](O)[C@H](O)[C@H]2O)cc1 [pNP-β-D-xylopyranoside]

Source: publication PMC5457731, “Molecular cloning, expression, and characterization of four novel thermo-alkaliphilic enzymes retrieved from a metagenomic library” (Biotechnology for Biofuels, 2017)
